In patent publication USRE42890E1, “Furazanobenzimidazoles” (Basilea Pharmaceutica AG, priority 2003, dated 2011):
Like-named read-outs stand apart in the source and are kept apart here.

How the values were obtained:
Jurkat = assay: MTS proliferation assay, Jurkat; type: cell-based, human; settings: 72 h incubation, read-out: MTS proliferation assay IC 50 Jurkat
Summary of the method: (§1)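 Cells seeded 24 h before treatment in RPMI-1640 with 5% or 10% FCS. Compounds added at 10, 3, 1 and 0.3 μM final and incubated 72 h at 37 °C, 7.5% CO2. MTS reagent then added for 3 h, absorbance read at 492 nm.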

Jily = assay: MTS proliferation assay, Jily; type: cell-based; settings: 72 h incubation, read-out: MTS proliferation assay IC 50 Jily
Summary of the method: (§2)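 Cells seeded 24 h before treatment in RPMI-1640 with 5% or 10% FCS, then exposed 72 h at 37 °C, 7.5% CO2, to compound at final 10, 3, 1 and 0.3 μM. Viability by MTS, 3 h further incubation, absorbance 492 nm.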

HT1080 = assay: MTS proliferation assay, HT1080; type: cell-based, human; settings: HT1080, 72 h incubation, read-out: MTS proliferation assay IC 50 HT1080
Summary of the method: as §1

HeLa = assay: MTS proliferation assay, HeLa; type: cell-based, human; settings: 72 h incubation, read-out: MTS proliferation assay IC 50 HeLa
Summary of the method: as §1

MRC5 = assay: MTS proliferation assay, MRC5; type: cell-based; settings: MRC5, 72 h incubation, read-out: MTS proliferation assay IC 50 MRC5
Summary of the method: as §2

[1] = system: adherent cells or suspension cells; assay: Hoechst 33342 nuclear staining (fraction of apoptotic nuclei); type: cell-based; parameters: key: 0 relating to no activity; 1 relating to weak activity comprising less than 70% of the cells; score 2 relating to strong activity comprising more than 70% of the cells

Row | Compound | IC50 (Jurkat) | IC50 (Jily) | IC50 (HT1080) | IC50 (HeLa) | IC50 (MRC5) | Hoechst 33342 nuclear staining score ([1]; H460, conc 0.01 μm) | Hoechst 33342 nuclear staining score ([1]; H460, conc 0.1 μm) | Hoechst 33342 nuclear staining score ([1]; H460, conc 1 μm) | Hoechst 33342 nuclear staining score ([1]; HeLa, conc 0.01 μm) | Hoechst 33342 nuclear staining score ([1]; HeLa, conc 0.1 μm) | Hoechst 33342 nuclear staining score ([1]; HeLa, conc 1 μm) | Hoechst 33342 nuclear staining score ([1]; Jurkat, conc 0.01 μm) | Hoechst 33342 nuclear staining score ([1]; Jurkat, conc 0.1 μm) | Hoechst 33342 nuclear staining score ([1]; Jurkat, conc 1 μm) | Hoechst 33342 nuclear staining score ([1]; MRC5, conc 0.01 μm) | Hoechst 33342 nuclear staining score ([1]; MRC5, conc 0.1 μm) | Hoechst 33342 nuclear staining score ([1]; MRC5, conc 1 μm) | Hoechst 33342 nuclear staining score ([1]; PBLs, conc 0.01 μm) | Hoechst 33342 nuclear staining score ([1]; PBLs, conc 0.1 μm) | Hoechst 33342 nuclear staining score ([1]; PBLs, conc 1 μm) | also measured
1 | Nc1nonc1-c1nc2ccccc2n1CC(=O)c1ccc(Cl)cc1Cl [Example 31] | 100 to 1000 nM | 100 to 1000 nM | > 1000 nM | 100 to 1000 nM | 100 to 1000 nM | 0 | 0 | 0 | 0 | 0 | 0 | 0 | 0 | 1 (1 relating to weak activity comprising less than 70% of the cells) | 0 | 0 | 0 | 0 | 0 | 0 | 
2 | COCOc1ccc(C(=O)Cn2c(-c3nonc3N)nc3ccccc32)cc1OC [Example 15, 4-[1-(3-Methoxy-4-methoxymethoxy-phenacyl)-1H-benzimidazol-2-yl]-furazan-3-ylamine] |  | < 10 nM |  |  |  | 2 (score 2 relating to strong activity comprising more than 70% of the cells) | 2 (score 2 relating to strong activity comprising more than 70% of the cells) | 2 (score 2 relating to strong activity comprising more than 70% of the cells) | 1 (1 relating to weak activity comprising less than 70% of the cells) | 2 (score 2 relating to strong activity comprising more than 70% of the cells) | 2 (score 2 relating to strong activity comprising more than 70% of the cells) | 2 (score 2 relating to strong activity comprising more than 70% of the cells) | 2 (score 2 relating to strong activity comprising more than 70% of the cells) | 2 (score 2 relating to strong activity comprising more than 70% of the cells) | 0 | 1 (1 relating to weak activity comprising less than 70% of the cells) | 2 (score 2 relating to strong activity comprising more than 70% of the cells) | 0 | 0 | 0 | IC50 (Jurkat; Homo sapiens): < 10 nM; IC50 (HT1080; Homo sapiens, HT-1080): < 10 nM; IC50 (HeLa; Homo sapiens): 10 to 100 nM; IC50 (MRC5; Homo sapiens): < 10 nM; Hoechst 33342 nuclear staining score ([1]; Jily, conc 0.01 μm): 2 (score 2 relating to strong activity comprising more than 70% of the cells); Hoechst 33342 nuclear staining score ([1]; Jily, conc 0.1 μm): 2 (score 2 relating to strong activity comprising more than 70% of the cells); Hoechst 33342 nuclear staining score ([1]; Jily, conc 1 μm): 2 (score 2 relating to strong activity comprising more than 70% of the cells)
3 | N#CCCNc1nonc1-c1nc2ccccc2n1CC(=O)c1ccc(N)nc1 [Example 79] | < 10 nM | < 10 nM | < 10 nM | < 10 nM | < 10 nM | 2 (score 2 relating to strong activity comprising more than 70% of the cells) | 2 (score 2 relating to strong activity comprising more than 70% of the cells) | 2 (score 2 relating to strong activity comprising more than 70% of the cells) | 2 (score 2 relating to strong activity comprising more than 70% of the cells) | 2 (score 2 relating to strong activity comprising more than 70% of the cells) | 2 (score 2 relating to strong activity comprising more than 70% of the cells) | 2 (score 2 relating to strong activity comprising more than 70% of the cells) | 2 (score 2 relating to strong activity comprising more than 70% of the cells) | 2 (score 2 relating to strong activity comprising more than 70% of the cells) | 1 (1 relating to weak activity comprising less than 70% of the cells) | 2 (score 2 relating to strong activity comprising more than 70% of the cells) | 2 (score 2 relating to strong activity comprising more than 70% of the cells) | 0 | 0 | 0 | Hoechst 33342 nuclear staining score ([1]; Jily, conc 0.01 μm): 2 (score 2 relating to strong activity comprising more than 70% of the cells); Hoechst 33342 nuclear staining score ([1]; Jily, conc 0.1 μm): 2 (score 2 relating to strong activity comprising more than 70% of the cells); Hoechst 33342 nuclear staining score ([1]; Jily, conc 1 μm): 2 (score 2 relating to strong activity comprising more than 70% of the cells)
4 | N#CCCNc1nonc1-c1nc2ccccc2n1CC(=O)c1ccc(N)cc1.O=C(O)C(=O)O [Example 61] | 10 to 100 nM | 10 to 100 nM | 10 to 100 nM | 10 to 100 nM | 10 to 100 nM | 0 | 2 (score 2 relating to strong activity comprising more than 70% of the cells) | 2 (score 2 relating to strong activity comprising more than 70% of the cells) | 0 | 2 (score 2 relating to strong activity comprising more than 70% of the cells) | 2 (score 2 relating to strong activity comprising more than 70% of the cells) | 0 | 2 (score 2 relating to strong activity comprising more than 70% of the cells) | 2 (score 2 relating to strong activity comprising more than 70% of the cells) | 0 | 2 (score 2 relating to strong activity comprising more than 70% of the cells) | 2 (score 2 relating to strong activity comprising more than 70% of the cells) | 0 | 0 | 0 | Hoechst 33342 nuclear staining score ([1]; Jily, conc 0.01 μm): 0; Hoechst 33342 nuclear staining score ([1]; Jily, conc 0.1 μm): 2 (score 2 relating to strong activity comprising more than 70% of the cells); Hoechst 33342 nuclear staining score ([1]; Jily, conc 1 μm): 2 (score 2 relating to strong activity comprising more than 70% of the cells)
